Results: US11998585B2, “Methods and compositions for increasing the dose of a chemotherapeutic agent” (Stealth BioTherapeutics Inc., priority 2012, dated 2024)
“Also recorded” adds a separate entry of the source.

System: vincristine-induced hyperalgesia in rats
Assay: Vincristine-induced hyperalgesia in rats, electronic Von Frey test (paw-withdrawal threshold)
Assay type: in vivo, Sprague Dawley rats
Protocol: Female Sprague Dawley rats were divided randomly into 5 groups (n=10), according to Table 7. Groups 2-4 were administered Vincristine 0.10 mg/kg injected intravenously (i.v.) via tail vein followed by a bolus injection of 0.1 ml PBS vehicle, once daily for 14 days. Group 1 was administered 1 ml/kg PBS vehicle alone according to the same schedule. D-Arg-2′6′-dimethyltyrosine-Lys-Phe-NH2 10 mg/kg was administered subcutaneously (s.c.) 15 minutes prior to vincristine administration for the full 14-day period (Group 3), or for a period of two weeks beginning at day 15 (Group 4). Group 5 was administered Vincristine 0.10 mg/kg injected i.v. via tail vein, followed by a bolus injection of 0.1 ml PBS vehicle once daily for 28 days, and D-Arg-2′6′-dimethyltyrosine-Lys-Phe-NH2 10 mg/kg administered s.c. for a period of 14 days beginning at day 15.
Mechanical nociceptive threshold of paw-withdrawal was measured every two days using an electronic Von Frey test. Results are shown in FIG. 1 and FIG. 2 as means±SEM. One-way ANOVA with post-hoc test or t-test were used to assess the statistical significance, with p<0.05 is considered statistically significant. In FIG. 1, data for subjects receiving vincristine in the absence of simultaneous D-Arg-2′6′-dimethyltyrosine-Lys-Phe-NH2 (Groups 2, 4, 5) is shown collectively as “Group A.”

Row | Compound | pain threshold after withdrawal of vincristine, no peptide (Group 2: vincristine 0.10 mg/kg i.v. 14 days + PBS vehicle, followed after day 14, FIG. 2) | pain threshold (mechanical nociceptive threshold of paw-withdrawal) under vincristine (vincristine 0.10 mg/kg i.v. daily for 14 days without peptide, vs vehicle-only control (Group 1)) | treatment of vincristine-induced hyperalgesia (FIG. 2, rats, Groups 4 and 5) | pain threshold (mechanical nociceptive threshold of paw-withdrawal), prevention (Group 3: peptide 10 mg/kg s.c. daily 15 min prior to vincristine 0.10 mg/kg i.v. for 14 days, vs vehicle-only control (Group 1), FIG. 1) | pain threshold (mechanical nociceptive threshold of paw-withdrawal), treatment after withdrawal of vincristine (Group 4: vincristine 0.10 mg/kg i.v. 14 days, then peptide 10 mg/kg s.c. daily for two weeks beginning at day 15, FIG. 2) | pain threshold (mechanical nociceptive threshold of paw-withdrawal), treatment while vincristine continues (Group 5: vincristine 0.10 mg/kg i.v. 28 days, peptide 10 mg/kg s.c. daily for 14 days beginning at day 15, FIG. 2)
1 | CC[C@]1(O)C[C@H]2CN(CCc3c([nH]c4ccccc34)[C@@](C(=O)OC)(c3cc4c(cc3OC)N(C=O)[C@H]3[C@@](O)(C(=O)OC)[C@H](OC(C)=O)[C@]5(CC)C=CCN6CC[C@]43[C@@H]65)C2)C1 [vincristine, reference compound] | continued to show a decline in pain thereshold, reaching a low point at day 21, and showed a moderate improvement beginning at day 22 | a decrease in pain threshold response compared to a vehicle-only control | – | – | – | –
2 | D-Arg-2′6′-dimethyltyrosine-Lys-Phe-NH2 | – | – | effective in the treatment of vincristine-induced hyperalgesia in rats | not significantly different from the vehicle-only control; also recorded: effective in the prevention of vincristine-induced hyperalgesia in rats | improved pain threshold as soon as day 15, with continued improvement through day 25 | an arrest of the downward trend in pain threshold evident in the initial 14 day period, followed by an improvement in pain threshold beginning at day 16
